Literature values as cited in patent US20190231691A1, “Biopharma Application Of Micell Technology” (Micell Technologies, Inc., priority 2015, published 2019).

Conditions: in vivo

bioavailability: less than 14%
SMILES: CO[C@H]1C[C@@H]2CC[C@@H](C)[C@@](O)(O2)C(=O)C(=O)N2CCCC[C@H]2C(=O)O[C@H]([C@H](C)C[C@@H]2CC[C@@H](O)[C@H](OC)C2)CC(=O)[C@H](C)/C=C(\C)[C@@H](O)[C@@H](OC)C(=O)[C@H](C)C[C@H](C)/C=C/C=C/C=C/1C [rapamycin]
